According to patent US20220226342A1, “COMPOSITIONS AND METHODS OF TREATING LIVER CANCERS” (The Johns Hopkins University, priority 2019, published 2022):

Tests used:
[1] = test system: 40 HCC PDO lines; test: 10 μM drug screening, cell viability at 96 h (CellTiter-Glo); type: cell-based, human; conditions: one HCC PDO line, 96 h
Protocol: FIG. 2A-2E. 10 μM drug screening and IC50 calculation across 40 PDOs from 20 HCC patients. (2A). 10 μM drug screening of omacetaxine and sorafenib, regorafenib, lenvatinib and cabozantinib on 40 PDOs derived from 20 HCC patients. X axis—the 40 PDO lines, Y axis—Cell viability. (2B). IC50 curve of 40 PDO lines, x-axis—omacetaxine dose, Y axis—Relative cell viability. (2C). […] (2D). IC50 distribution of 40 HCC PDOs. X axis—PDO lines, Y axis—IC50 number of omacetaxine for each PDO.
As readout of drug effectiveness, cell viability at 96 hours (h) was measured. White light microscopy images of one of the HCC PDO lines across 129 drugs was prepared. In FIG. 2E, each panel represents the image collected at 96 hours after treatment with each drug, at a concentration of 10 μM. […] To quantify survival, we implemented CellTiter-Glo, a luminescent cell viability assay. A total of 129 readings (one for each drug) was obtained for each of the 40 PDO lines, for a total of […] data points. […] Next, the inventors contrasted the survival of the […] HCC PDO lines when treated with omacetaxine versus current FDA approved drugs for HCC.

[2] = test system: HCC patients; conditions: clinical trial; cited from earlier work
[3] = test system: HCC patients; conditions: cited from earlier work

Row | SMILES | white light microscopy image of organoids [1] | efficacy compared to sorafenib [2] | median increase in life span ([3]; HCC patients) | median survival of HCC patients ([3]; SHARP trial, extended from 7.9)
1 | CC(C)C[C@H](NC(=O)[C@H](Cc1ccccc1)NC(=O)c1cnccn1)B(O)O [bortezomib] | induce cell destruction | – | – | –
2 | COc1cc2nccc(Oc3ccc(NC(=O)NC4CC4)c(Cl)c3)c2cc1C(N)=O [lenvatinib] | – | non-inferior efficacy | – | –
3 | CNC(=O)c1cc(Oc2ccc(NC(=O)Nc3ccc(Cl)c(C(F)(F)F)c3)cc2)ccn1 [sorafenib] | allow unrestricted organoid growth | – | 9.2 months | 10.7 months
